Assay results published in ChEMBL document CHEMBL2311258, “Manzamenones L-N, new dimeric fatty-acid derivatives from an Okinawan marine sponge Plakortis sp” (Bioorg Med Chem Lett, 2013).
Values after ≈ are worked out from the molar mass of the structure shown.

What was measured:
Bacillus subtilis = assay: Antibacterial activity against Bacillus subtilis; format: functional
Candida albicans = assay: Antifungal activity against Candida albicans; format: functional, organism-based
Escherichia coli = assay: Antibacterial activity against Escherichia coli; format: functional
Cryptococcus neoformans = assay: Antifungal activity against Cryptococcus neoformans; format: functional, organism-based
Staphylococcus aureus = assay: Antibacterial activity against Staphylococcus aureus; format: functional
Micrococcus luteus = assay: Antibacterial activity against Micrococcus luteus; format: functional
Aspergillus niger = assay: Antifungal activity against Aspergillus niger; format: functional, organism-based
[1] = test system: Trichophyton mentagrophytes; assay: Antifungal activity against Trichophyton mentagrophytes; format: functional, organism-based

SMILES	MIC (Bacillus subtilis) [µg/mL]	IC50 (Candida albicans) [µg/mL]	MIC (Escherichia coli) [µg/mL]	IC50 (Cryptococcus neoformans) [µg/mL]	MIC (Staphylococcus aureus) [µg/mL]	MIC (Micrococcus luteus) [µg/mL]	IC50 (Aspergillus niger) [µg/mL]	IC50 [1] [µg/mL]
CCCCCCCCCCCCCCCCC1=C[C@H](C(=O)OC)[C@H]2C(=O)C(C(=O)OC)=C(CCCCCCCCCCCCCCCC)[C@@]2(O)[C@H]1C(=O)OC (racemic)	> 32	> 32	> 32	> 32	> 32	> 32	> 32	> 32
CCCCCCCCCCCCCCCCC1=C(C(=O)OC)C2=C(C(=O)[C@H](C(=O)OC)[C@H]2CCCCCCCCCCCCCCCC)C(C(=O)OC)C1 (some centres undefined) [MANZAMENONE N]	> 32	32 (≈ 42.3 µM)	32 (≈ 42.3 µM)	4 (≈ 5.28 µM)	> 32	> 32	> 32	> 32
CCCCCCCCCCCCCCCCC1=C[C@H](C(=O)O)[C@H]2C(=O)C(C(=O)OC)=C(CCCCCCCCCCCCCCCC)[C@@]2(O)[C@H]1C(=O)OC	> 32	32 (≈ 42.2 µM)	32 (≈ 42.2 µM)	8 (≈ 10.5 µM)	16 (≈ 21.1 µM)	> 32	> 32	> 32
